Results taken from ChEMBL document CHEMBL1147052, “Innate immunity and transcription of MGAT-III and Toll-like receptors in Alzheimer's disease patients are improved by bisdemethoxycurcumin” (Proc Natl Acad Sci U S A, 2007).
Activity calls are given as the source filed them.

Columns and labels:
Assay type in all cases: functional, cell-based
Conditions in all cases: Homo sapiens
PBMC [1] = experiment: Increase in TLR4 protein expression in PBMC from Alzheimer's disease patient at 0.1 uM by flow cytometry
PBMC [2] = experiment: Increase in TLR3 protein expression in PBMC from Alzheimer's disease patient at 0.1 uM by flow cytometry
Macrophage = experiment: Induction of amyloid beta phagocytosis in macrophages from Alzheimer's disease patient at 0.1 uM
PBMC [3] = experiment: Upregulation of TLR transcription in PBMC from Alzheimer's disease patient
PBMC [4] = experiment: Upregulation of MGAT3 transcription in PBMC from Alzheimer's disease patient
PBMC [5] = experiment: Increase in TLR2 protein expression in PBMC from Alzheimer's disease patient at 0.1 uM by flow cytometry

Measured: Activity

O=C(/C=C/c1ccc(O)cc1)CC(=O)/C=C/c1ccc(O)cc1
active: all assays above
